Calls of active or inactive are those of the source. The rule behind the calls is not given here.

The subject of one series is EL4. Nature of the series: Cytotoxicity against mouse EL4 cells assessed as effect on cell viability at 1 to 10 uM measured after 72 hrs by MTT assay. Type of series: cell-based. Conditions: el4, 72 h, dose 1-10 µM. Background: Formazan colour is commonly taken as a measure of viable cells.
The subject of series [1] is T-cell. In words: Induction of cell differentiation in anti-CD3/CD28 stimulated naive T-cells assessed as upregulation of CD4+ CD25+ cell frequency at 1 uM measured after 72 hrs by flow cytometry analysis. The class given is functional, cell-based. On the technique in general: A flow cytometer gives signals particle by particle.
Series [2] relates to T-cell. Nature of the series: Induction of cell differentiation in anti-CD3/CD28 stimulated naive T-cells assessed as upregulation of Foxp3 mRNA expression at 1 uM measured after 72 hrs by Q-PCR analysis. The class given is functional, cell-based.
Series [3] relates to T-cell. Nature of the series: Induction of cell differentiation in anti-CD3/CD28 stimulated naive T-cells assessed as upregulation of CD4+ CD25+ cell frequency at 10 uM measured after 72 hrs by flow cytometry analysis. The class given is functional, cell-based.
In series [4] the test system is T-cell. Nature of the series: Induction of cell differentiation in anti-CD3/CD28 stimulated naive T-cells assessed as upregulation of Foxp3 expression at 10 uM measured after 72 hrs by Q-PCR analysis. The class given is functional, cell-based.
Series [5] deals with T-cell. Nature of the series: Induction of cell differentiation in anti-CD3/CD28 stimulated naive T-cells assessed as number of Treg cells at 3 uM measured after 72 hrs by flow cytometry analysis (reference value: 24 %). Type of series: functional.
In series [6] the test system is T-cell. Nature of the series: Induction of cell differentiation in anti-CD3/CD28 stimulated naive T-cells assessed as number of Treg cells at 10 uM measured after 72 hrs by flow cytometry analysis (reference value: 24 %). Type of series: functional.
The subject of series [7] is T-cell. Nature of the series: Induction of cell differentiation in anti-CD3/CD28 stimulated naive T-cells assessed as number of Treg cells at 30 uM measured after 72 hrs by flow cytometry analysis (reference value: 24 %). Type of series: functional.
In series [8] the test system is T-cell. In words: Induction of cell differentiation in anti-CD3/CD28 stimulated naive T-cells assessed as upregulation of Foxp3 mRNA expression at 3 to 30 uM measured after 72 hrs by Q-PCR analysis. Conditions: dose 3-30 µM. The class given is functional, cell-based.
The subject of series [9] is T-cell. In words: Induction of cell differentiation in anti-CD3/CD28 stimulated naive T-cells assessed as upregulation of IL-10 mRNA expression at 3 to 30 uM measured after 72 hrs by Q-PCR analysis. Type of series: functional, cell-based. Conditions: dose 3-30 µM.
For series [10], the system named is Mus musculus. In words: Antiinflammatory activity in DSS-induced ulcerative colitis mouse model assessed as reduction in DAI score a 20 to 40 mg/kg, po administered for 10 consecutive days. The class given is functional, organism-based. Conditions: dose 20-40 mg/kg, time 10.0 day.
Series [11] has as its system Mus musculus. In words: Antiinflammatory activity in DSS-induced ulcerative colitis mouse model assessed as rescue of colon length shortening at 20 to 40 mg/kg, po administered for 10 consecutive days. Type of series: functional, organism-based. Conditions: dose 20-40 mg/kg, time 10.0 day.
In series [12] the test system is Mus musculus. Nature of the series: Antiinflammatory activity in DSS-induced ulcerative colitis mouse model assessed as reduction in MPO activity at 20 to 40 mg/kg, po administered for 10 consecutive days. Conditions: dose 20-40 mg/kg, time 10.0 day. Type of series: functional, organism-based.
Series [13] relates to Mus musculus. In words: Antiinflammatory activity in DSS-induced ulcerative colitis mouse model assessed as protection against colon destruction at 20 to 40 mg/kg, po administered for 10 consecutive days by HE staining based histopathological analysis. Type of series: functional, organism-based. Conditions: dose 20-40 mg/kg, time 10.0 day.
Series [14] relates to Mus musculus. Nature of the series: Antiinflammatory activity in DSS-induced ulcerative colitis mouse model assessed as protection against inflammation of colons at 20 to 40 mg/kg, po administered for 10 consecutive days by HE staining based histopathological analysis. The class given is functional, organism-based. Conditions: dose 20-40 mg/kg, time 10.0 day.
Series [15] deals with Mus musculus. In words: Induction of Treg cell differentiation in DSS- induced ulcerative colitis mouse model assessed as number of Treg cells in colonic lamina proprias at 20 mg/kg, po administered for 10 consecutive days by flow cytometry analysis (Rvb= 7.97%). The class given is functional. Conditions: time 10 day.
Series [16] deals with Mus musculus. Nature of the series: Induction of Treg cell differentiation in DSS- induced ulcerative colitis mouse model assessed as number of Treg cells in colonic lamina proprias at 40 mg/kg, po administered for 10 consecutive days by flow cytometry analysis (Rvb= 7.97%). Type of series: functional. Conditions: time 10 day.
For series [17], the system named is Mus musculus. Nature of the series: Induction of Treg cell differentiation in DSS- induced ulcerative colitis mouse model assessed as number of Treg cells in mesenteric lymph nodes at 20 mg/kg, po administered for 10 consecutive days by flow cytometry analysis (Rvb= 7.52%). The class given is functional. Conditions: time 10 day.
In series [18] the test system is Mus musculus. Nature of the series: Induction of Treg cell differentiation in DSS- induced ulcerative colitis mouse model assessed as number of Treg cells in mesenteric lymph nodes at 40 mg/kg, po administered for 10 consecutive days by flow cytometry analysis (Rvb= 7.52%). Type of series: functional. Conditions: time 10 day.
The subject of series [19] is Mus musculus. Nature of the series: Induction of Treg cell differentiation in DSS- induced ulcerative colitis mouse model assessed as number of Treg cells in spleens at 20 mg/kg, po administered for 10 consecutive days by flow cytometry analysis (Rvb= 6.49%). Conditions: time 10 day. Type of series: functional.
Series [20] relates to Mus musculus. In words: Induction of Treg cell differentiation in DSS- induced ulcerative colitis mouse model assessed as number of Treg cells in spleens at 40 mg/kg, po administered for 10 consecutive days by flow cytometry analysis (Rvb= 6.49%). Type of series: functional. Conditions: time 10 day.
Series [21] relates to Mus musculus. In words: Induction of Treg cell differentiation in DSS- induced ulcerative colitis mouse model assessed as increase in Foxp3 mRNA level at 20 to 40 mg/kg, po administered for 10 consecutive days by Q-PCR analysis. The class given is functional, organism-based. Conditions: dose 20-40 mg/kg, time 10.0 day.
Series [22] deals with Mus musculus. Nature of the series: Induction of Treg cell differentiation in DSS- induced ulcerative colitis mouse model assessed as increase in IL-10 mRNA level at 20 to 40 mg/kg, po administered for 10 consecutive days by Q-PCR analysis. Conditions: dose 20-40 mg/kg, time 10.0 day. The class given is functional, organism-based.
In series [23] the test system is T-cell. In words: Induction of cell differentiation in anti-CD3/CD28 stimulated naive T-cells assessed as upregulation of CD4+ CD25+ cell frequency at 0.2 mM measured after 72 hrs by flow cytometry analysis. Type of series: functional, cell-based.
The test system of series [24] is T-cell. In words: Induction of cell differentiation in anti-CD3/CD28 stimulated naive T-cells assessed as upregulation of Foxp3 expression at 0.2 mM measured after 72 hrs by Q-PCR analysis. Type of series: functional, cell-based.
Series [25] relates to T-cell. In words: Induction of cell differentiation in anti-CD3/CD28 stimulated naive T-cells assessed as number of Treg cells at 0.2 mM measured after 72 hrs by flow cytometry analysis (reference value: 24 %). The class given is functional.
Series [26] concerns T-cell. Nature of the series: Induction of cell differentiation in anti-CD3/CD28 stimulated naive T-cells assessed as upregulation of IL-10 mRNA expression at 0.2 mM measured after 72 hrs by Q-PCR analysis. Type of series: functional, cell-based.

Regarding `COc1cc2c(cc1O)CC1c3c(cc(OC)c(O)c3-2)CCN1Cc1ccc(F)cc1` (configuration not stated), the Activity result in the series on EL4 is on record as “Non-Toxic”.
Same read-out and setting: in the case of `COc1cc2c(cc1O)CC1c3c(cc(OC)c(O)c3-2)CCN1Cc1ccc([N+](=O)[O-])cc1` (configuration not stated) it was “Non-Toxic”.
The same measure, in the same setting: in the case of `COc1cc2c(cc1O)CC1c3c(cc(OC)c(O)c3-2)CCN1C(=O)c1ccc(F)cc1` (configuration not stated) it was “Non-Toxic”; in that of `COc1cc2c(cc1O)CC1c3c(cc(OC)c(O)c3-2)CCN1C(=O)c1ccc(C)cc1` (configuration not stated), “Non-Toxic”; in that of `COc1cc2c(cc1O)CC1c3c(cc(OC)c(O)c3-2)CCN1Cc1ccc(Br)cc1` (configuration not stated), “Non-Toxic”.
As for `COc1cc2c(cc1O)CC1c3c(cc(OC)c(O)c3-2)CCN1Cc1ccccc1` (configuration not stated), the Activity result with EL4 is recorded as “Non-Toxic”.
Still for that read-out and setting: in the case of `COc1cc2c(cc1O)CC1c3c(cc(OC)c(O)c3-2)CCN1C(=O)c1ccc([N+](=O)[O-])cc1` (configuration not stated) it was “Non-Toxic”; in that of `COc1cc2c(cc1O)CC1c3c(cc(OC)c(O)c3-2)CCN1Cc1ccc(C#N)cc1` (configuration not stated), “Non-Toxic”; in that of `COc1cc2c(cc1O)CC1c3c(cc(OC)c(O)c3-2)CCN1C(=O)c1ccc(Cl)cc1` (configuration not stated), “Non-Toxic”.
With `COc1cc(OC)cc(C(=O)N2CCc3cc(OC)c(O)c4c3C2Cc2cc(O)c(OC)cc2-4)c1` (configuration not stated), in the series on EL4, the Activity entry is given as “Non-Toxic”.
Regarding `COc1cc2c(cc1O)CC1c3c(cc(OC)c(O)c3-2)CCN1C(=O)c1ccccc1` (configuration not stated), the Activity result in the series on EL4 is given as “Non-Toxic”.
The same measure, in the same setting: in the case of `COc1cc(CN2CCc3cc(OC)c(O)c4c3C2Cc2cc(O)c(OC)cc2-4)cc(OC)c1` (configuration not stated) it was “Non-Toxic”.
For the compound `COc1cc2c(cc1O)CC1c3c(cc(OC)c(O)c3-2)CCN1Cc1ccc(Cl)cc1` (configuration not stated), the Activity result in the series on EL4 is “Non-Toxic”. In addition, the result in the series on T-cell [1] was inactive. In addition, the result in the series with T-cell [2] was Active.
`COc1cc2c(cc1O)CC1c3c(cc(OC)c(O)c3-2)CCN1C(=O)c1ccc(Br)cc1` (configuration not stated): in the series with EL4, the Activity result is “Non-Toxic”.
Take `COc1cc2c(cc1O)C[C@@H]1NCCc3cc(OC)c(O)c-2c31`: the Activity entry in the series with EL4 is listed as “Non-Toxic”; with T-cell [5], 24.4%; with T-cell [6] it was 31.8%; with T-cell [7], 44.2%; in the series with Mus musculus [15] it was 12.25%; in the series on Mus musculus [16], 15.87%. For the same compound, the Activity turned out to be 9.8% with Mus musculus [17], 14.89% in the series with Mus musculus [18], 6.58% in the series on Mus musculus [19] and 7.41% in the series on Mus musculus [20]. The outcome with T-cell [3], in the series with T-cell [4], with T-cell [8], in the series with T-cell [9], in the series with Mus musculus [10] and in the series on Mus musculus [11] was Active. Besides, the outcome with Mus musculus [12], in the series on Mus musculus [13], in the series with Mus musculus [14], with Mus musculus [21] and in the series with Mus musculus [22] was Active.
As to `COc1cc2c(cc1O)CC1c3c(cc(OC)c(O)c3-2)CCN1Cc1cc(C)cc(C)c1` (configuration not stated), the Activity entry in the series with EL4 is recorded as “Non-Toxic”.
Take `COc1ccc(C(=O)N2CCc3cc(OC)c(O)c4c3C2Cc2cc(O)c(OC)cc2-4)cc1` (configuration not stated): the Activity result in the series on EL4 is “Non-Toxic”.
`CCCC(=O)[O-].[Na+]` [SODIUM BUTYRATE]: the Activity entry with EL4 is recorded as “Non-Toxic”; in the series with T-cell [25], 32.4%. For the same compound, the outcome with T-cell [23], with T-cell [24] and with T-cell [26] was Active.
Consider `COc1cc2c(cc1O)CC1c3c(cc(OC)c(O)c3-2)CCN1C(=O)c1cc(OC)c(OC)c(OC)c1` (configuration not stated), for which the Activity result in the series with EL4 is “Non-Toxic”.
Consider `COc1cccc(CN2CCc3cc(OC)c(O)c4c3C2Cc2cc(O)c(OC)cc2-4)c1` (configuration not stated), for which the Activity result with EL4 is listed as “Non-Toxic”.
For `COc1cc2c(cc1O)CC1c3c(cc(OC)c(O)c3-2)CCN1Cc1ccc(C)cc1` (configuration not stated), the Activity entry in the series with EL4 is given as “Non-Toxic”.

These data come from ChEMBL document CHEMBL4823244, “Synthesis of norisoboldine derivatives and bioactivity assay for inducing the generation of regulatory T cells” (Bioorg Med Chem Lett, 2021).
